The target in one experiment is T1, FLT3 (D835Y) (Homo sapiens, UniProt P36888, D835Y).
T1 construct: host or cells: T7 phage in E. coli (BL21-derived) or HEK-293
T1 sequence (P36888 27-993 D835Y): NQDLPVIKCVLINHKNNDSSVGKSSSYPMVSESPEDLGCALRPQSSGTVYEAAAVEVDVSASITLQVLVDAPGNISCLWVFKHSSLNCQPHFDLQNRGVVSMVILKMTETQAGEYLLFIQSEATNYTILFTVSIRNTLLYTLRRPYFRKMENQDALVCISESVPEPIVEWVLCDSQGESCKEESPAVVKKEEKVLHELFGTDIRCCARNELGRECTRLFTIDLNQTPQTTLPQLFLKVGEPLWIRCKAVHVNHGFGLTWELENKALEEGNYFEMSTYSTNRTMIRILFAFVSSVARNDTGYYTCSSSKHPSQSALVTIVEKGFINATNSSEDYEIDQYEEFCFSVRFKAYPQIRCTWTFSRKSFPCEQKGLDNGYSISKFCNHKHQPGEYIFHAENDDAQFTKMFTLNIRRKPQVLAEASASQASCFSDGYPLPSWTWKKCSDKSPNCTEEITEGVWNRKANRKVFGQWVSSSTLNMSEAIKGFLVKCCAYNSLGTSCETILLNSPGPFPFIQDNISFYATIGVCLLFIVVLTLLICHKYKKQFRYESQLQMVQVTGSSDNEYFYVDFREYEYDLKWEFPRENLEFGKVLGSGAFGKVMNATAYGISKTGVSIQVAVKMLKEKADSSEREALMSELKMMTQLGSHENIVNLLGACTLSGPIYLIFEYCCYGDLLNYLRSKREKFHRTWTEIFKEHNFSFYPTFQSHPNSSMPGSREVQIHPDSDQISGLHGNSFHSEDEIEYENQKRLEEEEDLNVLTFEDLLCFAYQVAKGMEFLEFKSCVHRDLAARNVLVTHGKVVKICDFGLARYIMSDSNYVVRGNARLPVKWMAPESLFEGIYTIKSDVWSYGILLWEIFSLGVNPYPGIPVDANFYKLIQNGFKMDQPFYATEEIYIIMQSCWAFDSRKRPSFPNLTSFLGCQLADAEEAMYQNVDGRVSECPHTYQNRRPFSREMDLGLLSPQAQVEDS
Description: KINOMEscan kinase binding assay, FLT3 (D835Y). The protocol: (§1) The kinase assay was conducted using KINOMEscan™.
(§2) Kinase-tagged T7 phage strains were grown in parallel in 24-well blocks in an E. coli host derived from the BL21 strain. E. coli were grown to log-phase and infected with T7 phage from a frozen stock (multiplicity of infection=0.4) and incubated with shaking at 32° C. until lysis (90-150 minutes). The lysates were centrifuged (6,000×g) and filtered (0.2 μm) to remove cell debris. The remaining kinases were produced in HEK-293 cells and subsequently tagged with DNA for qPCR detection. Streptavidin-coated magnetic beads were treated with biotinylated small molecule ligands for 30 minutes at room temperature to generate affinity resins for kinase assays. The liganded beads were blocked with excess biotin and washed with blocking buffer (SeaBlock (Pierce), 1% BSA, 0.05% Tween 20, 1 mM DTT) to remove unbound ligand and to reduce non-specific phage binding. Binding reactions were assembled by combining kinases, liganded affinity beads, and test compound (Compound 23) in 1× binding buffer (20% SeaBlock, 0.17×PBS, 0.05% Tween 20, 6 mM DTT). Test compound were prepared as 40× stocks in 100% DMSO and directly diluted into the assay. All reactions were performed in polypropylene 384-well plates in a final volume of 0.04 ml. […] The kinase concentration in the eluates was measured by qPCR. […]

A further experiment has as its target T2, FLT3 (N841I) (Homo sapiens, UniProt P36888, N841I).
T2 construct: host or cells: T7 phage in E. coli (BL21-derived) or HEK-293
T2 sequence (P36888 27-993 N841I): T1 sequence (P36888 27-993 D835Y) with Y809D, N815I
As to the kind of experiment: KINOMEscan kinase binding assay, FLT3 (N841I). The protocol:
as §1, §2

Changes are numbered by the printed parent chain.

Take `Cc1ccc(C(=O)Nc2ccc(CN3CCN(C)CC3)c(C(F)(F)F)c2)cc1C#Cc1cnc2[nH]ncc2c1` [Compound 23, 3-(2-(1H-pyrazolo[3,4-b]pyridin-5-yl)ethynyl)-4-methyl-N-(4-((4-methylpiperazin-1-yl)methyl)-3-(trifluoromethyl)phenyl)benzamide]: the figures for the “% Ctrl@10 nM” value on FLT3 (D835Y) (10 nM) and on FLT3 (N841I) (10 nM) were 42 % Ctrl and 2.9 % Ctrl, respectively. In addition, the “% Ctrl@100 nM” value on FLT3 (D835Y) (100 nM) worked out at 17 % Ctrl; at FLT3 (N841I) (100 nM) it was 0.05 % Ctrl.

The record behind these values is patent publication US12233047B2, “Pharmaceutical combination and use thereof” (ASCENTAGE PHARMA (SUZHOU) CO., LTD., priority 2019, dated 2025).
